From patent publication US12534742B2, “Compound for regulating gene editing efficiency and application thereof” (Shanghai Institute of Organic Chemistry, Chinese Academy of …, priority 2018, dated 2026)
pIC50: −log10 of the molar value. Values joined by “and” are separate entries in the source; they are usually repeats but may differ in a detail not shown here. Equal values may be shown once.

Key:
base editing system = assay: Regulation of base editing in HEK293T cells, deep sequencing; type: cell-based
SpyCas9 [1] = biological target: T1, SpyCas9 (Streptococcus pyogenes serotype M1, UniProt Q99ZW2); assay: Specificity of SpyCas9-based gene editing (targeted/off-target editing), T7E1 test; type: cell-based; conditions: HEK293 cells
T1 construct: expressed in transfected cells; host or cells: HEK293
T1 sequence (Q99ZW2 whole entry): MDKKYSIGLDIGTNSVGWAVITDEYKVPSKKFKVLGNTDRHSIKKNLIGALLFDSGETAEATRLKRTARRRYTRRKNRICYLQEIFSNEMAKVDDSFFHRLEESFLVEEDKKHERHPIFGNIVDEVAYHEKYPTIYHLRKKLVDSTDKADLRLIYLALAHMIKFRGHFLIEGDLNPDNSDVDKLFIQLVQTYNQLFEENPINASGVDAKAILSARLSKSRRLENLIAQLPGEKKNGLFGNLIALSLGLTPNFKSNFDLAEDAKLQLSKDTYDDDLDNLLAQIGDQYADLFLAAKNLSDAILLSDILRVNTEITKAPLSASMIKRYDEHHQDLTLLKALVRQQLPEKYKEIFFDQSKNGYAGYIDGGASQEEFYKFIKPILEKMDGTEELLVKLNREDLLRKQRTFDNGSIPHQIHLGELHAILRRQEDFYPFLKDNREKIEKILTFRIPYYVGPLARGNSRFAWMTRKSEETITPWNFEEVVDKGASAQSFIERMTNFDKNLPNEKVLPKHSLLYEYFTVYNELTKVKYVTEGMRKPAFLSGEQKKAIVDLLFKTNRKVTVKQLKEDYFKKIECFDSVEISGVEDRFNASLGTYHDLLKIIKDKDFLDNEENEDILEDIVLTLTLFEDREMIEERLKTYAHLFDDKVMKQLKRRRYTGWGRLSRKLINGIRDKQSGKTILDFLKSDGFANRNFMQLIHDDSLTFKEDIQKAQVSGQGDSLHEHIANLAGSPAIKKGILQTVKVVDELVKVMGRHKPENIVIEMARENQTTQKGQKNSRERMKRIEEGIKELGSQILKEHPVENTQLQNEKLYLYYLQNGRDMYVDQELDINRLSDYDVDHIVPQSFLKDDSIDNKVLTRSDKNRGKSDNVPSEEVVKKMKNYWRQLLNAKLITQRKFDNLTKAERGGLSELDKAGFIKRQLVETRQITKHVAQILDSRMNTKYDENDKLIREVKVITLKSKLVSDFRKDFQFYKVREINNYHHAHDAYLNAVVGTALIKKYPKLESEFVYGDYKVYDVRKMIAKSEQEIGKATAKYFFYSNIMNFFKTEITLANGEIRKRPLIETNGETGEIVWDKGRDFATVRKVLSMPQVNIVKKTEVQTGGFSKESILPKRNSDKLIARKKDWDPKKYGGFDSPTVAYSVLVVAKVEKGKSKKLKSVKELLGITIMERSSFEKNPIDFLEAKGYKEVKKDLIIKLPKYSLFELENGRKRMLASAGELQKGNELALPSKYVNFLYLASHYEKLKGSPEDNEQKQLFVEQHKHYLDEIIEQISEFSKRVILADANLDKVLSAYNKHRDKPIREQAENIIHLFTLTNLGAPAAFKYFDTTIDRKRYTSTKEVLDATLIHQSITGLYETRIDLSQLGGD
Description: (§1) HEK293 cells (10^5 cells/well) were seeded on a 24-well plate. 24 hours after inoculation, cells were transfected with 200 ng AAVS1-AS2 and 200 ng pST-Cas9 plasmid or 200 ng EMX1 and 200 ng pST-Cas9 plasmid in Opti-MEM medium. 6 hours after transfection, DMEM supplemented with 10% FBS and 10 μM drug (Compound 49) was used to replace Opti-MEM. The positive control for Cas9 activity was 200 ng AAVS1-AS2 and 200 ng pST-Cas9 plasmid or 200 ng EMX1 and 200 ng pST-Cas9 plasmid without drug. After the gene editing was completed, the cell genomic DNA was extracted, and the gene editing efficiency was tested by the T7E1 method (see Guschin, D. Y. et al. Methods Mol. Biol. 649, 247-256 (2010))).
SpyCas9 was lipid transfected into HEK293 cells or nuclear transfected into K562 cells to determine the effect of compound 49 on the specificity of SpyCas9 in multiple cell lines on different genes. The inhibitor was added to the culture 6 hours after transfection. The detection method is the same as in Example 2.

[2] = biological target: T2, Staphylococcus aureus Cas9 (SaCas9) (Staphylococcus aureus, UniProt J7RUA5); assay: Inhibition of plasmid-expressed SaCas9 gene editing in cell culture, T7E1 test; type: cell-based; conditions: plasmid containing SaCas9; group without drug 14%
T2 construct: expressed in transfected cells; host or cells: HEK293 (method similar to 2.1)
T2 sequence (J7RUA5 whole entry): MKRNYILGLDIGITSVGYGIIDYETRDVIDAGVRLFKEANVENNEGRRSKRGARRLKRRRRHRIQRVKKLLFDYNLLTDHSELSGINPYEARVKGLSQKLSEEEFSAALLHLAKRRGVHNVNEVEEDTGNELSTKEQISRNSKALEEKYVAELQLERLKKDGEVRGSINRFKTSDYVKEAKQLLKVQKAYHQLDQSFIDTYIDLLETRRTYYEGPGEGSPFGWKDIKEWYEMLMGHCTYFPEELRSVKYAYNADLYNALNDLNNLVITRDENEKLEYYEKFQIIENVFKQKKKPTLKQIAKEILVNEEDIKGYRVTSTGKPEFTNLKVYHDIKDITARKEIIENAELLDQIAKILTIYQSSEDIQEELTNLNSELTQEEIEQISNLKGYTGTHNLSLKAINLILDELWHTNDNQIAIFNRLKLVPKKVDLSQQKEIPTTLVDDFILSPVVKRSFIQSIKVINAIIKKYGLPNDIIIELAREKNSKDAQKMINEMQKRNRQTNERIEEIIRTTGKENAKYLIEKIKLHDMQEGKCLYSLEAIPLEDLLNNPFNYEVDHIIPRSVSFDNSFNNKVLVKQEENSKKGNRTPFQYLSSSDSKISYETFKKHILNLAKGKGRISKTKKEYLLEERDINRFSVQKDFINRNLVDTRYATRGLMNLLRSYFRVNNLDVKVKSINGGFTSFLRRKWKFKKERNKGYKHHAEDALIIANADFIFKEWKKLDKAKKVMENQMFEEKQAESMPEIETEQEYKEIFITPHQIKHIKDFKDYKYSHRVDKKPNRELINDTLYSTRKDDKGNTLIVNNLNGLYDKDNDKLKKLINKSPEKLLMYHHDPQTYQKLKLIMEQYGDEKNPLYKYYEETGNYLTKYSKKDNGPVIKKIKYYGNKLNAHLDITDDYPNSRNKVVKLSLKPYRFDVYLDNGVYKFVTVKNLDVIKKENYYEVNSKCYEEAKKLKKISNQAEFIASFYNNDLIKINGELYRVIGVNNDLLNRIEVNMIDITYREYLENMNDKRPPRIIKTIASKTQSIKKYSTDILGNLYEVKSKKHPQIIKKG
Description: as §1
The method of this example was similar to 2.1, except that pST-Cas9 was replaced with a plasmid containing SaCas9. The detection method was the same as in Example 2.

[3] = humans; cited from earlier work
SpyCas9 [4] = biological target: T1, SpyCas9; assay: Inhibition of plasmid-expressed SpyCas9 editing of endogenous genes in HEK293 cells, T7E1 test; type: cell-based; conditions: 10 μM compound
Description: as §1
The method of this example was the same as in Example 2.

[5] = biological target: CRISPR/Cas9 from Streptococcus pyogenes (SpyCas9) (Streptococcus pyogenes serotype M1, UniProt Q99ZW2); assay: cell-based;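 also: Cell-based reporter with a SpyCas9 target site placed in EGFP, where NHEJ repair of the cut restores the reading frame, read-out is the share of EGFP-positive cells, lowered by inhibitors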
CRISPR/Cas9 from Streptococcus pyogenes (SpyCas9), sequence (Q99ZW2 whole entry): as the sequence (Q99ZW2 whole entry) above
Description: The CRISPR/Cas9 recognition site was inserted into the EGFP coding sequence so that the downstream sequence of the CRISPR/Cas9 recognition site was inside the box. The EGFP sequence was cleaved by Cas9 to produce double-strand breaks (DSBs), which would repair one of the two DNA repair mechanisms in the cell: non-homologous end joining (NHEJ) or homologous directed repair (HDR). The insertion or deletion introduced by NHEJ would restore the open reading frame of EGFP, thus activating EGFP fluorescence (FIG. 1).

O=C(/C=C\n1cnc(-c2cc(C(F)(F)F)cc(C(F)(F)F)c2)n1)NNc1cnccn1 [Compound 49]
decrease rate of C→T conversion frequency (base editing system; sg47, C on 5th site, 500 nM compound): 50% | C→T conversion frequency (base editing system; sg47, C on 5th site, 500 nM compound, 18% without compound): 9% | indel frequency (base editing system; sg48, 500 nM compound): reduced overall | C→T conversion inhibition efficiency (base editing system; sgMSSK1-5, C on 5th site in the window, 500 nM compound): 30% | C→T conversion inhibition efficiency (base editing system; sgMSSK1-5, C on 11th site out-of-window, 500 nM compound): 50% | ratio of the number of scheduled gene editing at specific sites to the number of scheduled gene editing at non-specific sites (SpyCas9 [1]; after compound added, 2.4 when no compound was added): 7 | raise of the specific/non-specific site editing ratio (SpyCas9 [1]; with compound versus no compound): 2.9 fold | gene modification rate [2]: < 0.5% | safety in clinical testing [3]: safe for humans | gene modification rate (SpyCas9 [4]; HEK293 cells transfected with AAVS1-AS2 and pST-Cas9 plasmids, no-drug group 22.4% and 35.1%): < 1% | gene modification rate (SpyCas9 [4]; HEK293 cells transfected with EMX1 and pST-Cas9 plasmids, no-drug group 26.5% and 27.9%): 5.6% and 3.8% | pIC50 [5]: > 6.00
